Measurements as given in patent US20250195536A1, “BICYCLOOCTANE KRAS INHIBITORS” (Incyte Corporation, priority 2023, published 2025).

Experiments:
[1] = target: KRAS G12D (Homo sapiens, UniProt P01116, G12D); experiment: GDP-GTP exchange assay (KRAS G12D); type: biochemical; conditions: bodipy-GDP/GppNHp exchange with SOS1; 4 h pre-incubation, 2 h reaction;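 note: one dagger IC50 up to 100 nM and two daggers above 100 nM up to 1 μM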
Experimental: (§1) The inhibitor potency of the exemplified compounds was determined in a fluorescence based guanine nucleotide exchange assay, which measures the exchange of bodipy-GDP (fluorescently labeled GDP) for GppNHp (Non-hydrolyzable GTP analog) to generate the active state of KRAS in the presence of SOS1 (guanine nucleotide exchange factor). Inhibitors were serially diluted in DMSO and a volume of 0.1 μL was transferred to the wells of a black low volume 384-well plate. 5 μL/well volume of bodipy-loaded KRAS G12D diluted to 2.5 nM in assay buffer (25 mM Hepes pH 7.5, 50 mM NaCl, 10 mM MgCl2 and 0.01% Brij-35) was added to the plate and pre-incubated with inhibitor for 4 h at r.t. Appropriate controls (enzyme with no inhibitor or with a G12D inhibitor) were included on the plate. The exchange was initiated by the addition of a 5 μL/well volume containing 1 mM GppNHp and 300 nM SOS1 in assay buffer. The 10 μL/well reaction concentration of the bodipy-loaded KRAS G12D, GppNHp, and SOS1 were 2.5 nM, 500 μM, and 150 nM, respectively. The reaction plates were incubated at r.t. for 2 h, a time estimated for complete GDP-GTP exchange in the absence of inhibitor. For the KRAS G12V mutant, similar guanine nucleotide exchange assays were used with 2.5 nM as final concentration for the bodipy loaded KRAS proteins and 3 h incubation after adding GppNHp-SOS1 mixture. A cyclic peptide described to selectively bind G12D mutant (Sakamoto et al., BBRC 484.3 (2017), 605-611) or internal compounds with confirmed binding were used as positive controls in the assay plates. Fluorescence intensities were measured on a PheraStar plate reader instrument (BMG Labtech) with excitation at 485 nm and emission at 520 nm.
(§2) Either GraphPad prism or Genedata Screener SmartFit was used to analyze the data. The IC50 values were derived by fitting the data to a four parameter logistic equation producing a sigmoidal dose-response curve with a variable Hill coefficient.
(§3) The symbol “⬆” indicates IC50 100 nM, “⬆⬆” indicates IC50 >100 nM but ≤1 μM; and “⬆⬆⬆” indicates IC50 is >1 μM but ≤5 μM, “⬆⬆⬆⬆” indicates IC50 is >5 μM but ≤10 μM. “NA” indicates IC50 not available.

[2] = target: KRAS G12V (Homo sapiens, UniProt P01116, G12V); experiment: GDP-GTP exchange assay (KRAS G12V); type: biochemical; conditions: bodipy-GDP/GppNHp exchange with SOS1; 3 h incubation after GppNHp-SOS1;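 note: one dagger IC50 up to 100 nM and two daggers above 100 nM up to 1 μM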
Experimental: as §1, §2, §3

[3] = Caco2 assay (permeability, Papp A-B); type: in vitro ADME; conditions: human, Caco-2, absorptive direction (A-B), 50 μM test compound, 4% BSA in receiver
Experimental: Caco-2 cells are grown at 37° C. in an atmosphere of 5% CO2 in DMEM growth medium supplemented with 10% (v/v) fetal bovine serum, 1% (v/v) nonessential amino acids, penicillin (100 U/mL), and streptomycin (100 μg/mL). Confluent cell monolayers are subcultured every 7 days or 4 days for Caco-2 by treatment with 0.05% trypsin containing […]. Caco-2 cells are seeded in 96-well Transwell plates. The seeding density for Caco-2 cells is 14,000 cells/well. DMEM growth medium is replaced every other day after seeding. Cell monolayers are used for transport assays between 22 and 25 days for Caco-2 cells.
Cell culture medium is removed and replaced with HBSS. To measure the TEER, the HBSS is added into the donor compartment (apical side) and receiver compartment (basolateral side). The TEER is measured by using a REMS Autosampler to ensure the integrity of the cell monolayers. Caco-2 cell monolayers with TEER values 300 Ω·cm^2 are used for transport experiments. To determine the Papp in the absorptive direction (A-B), solution of test compound (50 μM) in HBSS is added to the donor compartment (apical side), while HBSS solution with 4% BSA is added to the receiver compartment (basolateral side). The apical volume was 0.075 mL, and the basolateral volume is 0.25 mL. The incubation period is 120 min. at 37° C. in an atmosphere of 5% CO2. At the end of the incubation period, samples from the donor and receiver sides are removed and an equal volume of MeCN is added for protein precipitation. The supernatants are collected after centrifugation (3000 rpm, Allegra X-14R Centrifuge from Beckman Coulter, Indianapolis, IN) for LCMS analysis. The permeability value is determined according to the equation:
Papp(cm/s)=(F*VD)/(SA*MD),
where the flux rate (F, mass/time) is calc. from the slope of cumulative amounts of compound of interest on the receiver side, SA is the surface area of the cell membrane, VD is the donor volume, and MD is the initial amount of the solution in the donor chamber.
The symbol “+” indicates a Caco-2 value of ≤0.5, “++” indicates a Caco-2 value of >0.5 but ≤1; and “+++” indicates a Caco-2 value of >1. “NA” indicates Caco-2 value not available.

KRAS G12D, sequence (P01116 1-188 isoform P01116-2 G12D): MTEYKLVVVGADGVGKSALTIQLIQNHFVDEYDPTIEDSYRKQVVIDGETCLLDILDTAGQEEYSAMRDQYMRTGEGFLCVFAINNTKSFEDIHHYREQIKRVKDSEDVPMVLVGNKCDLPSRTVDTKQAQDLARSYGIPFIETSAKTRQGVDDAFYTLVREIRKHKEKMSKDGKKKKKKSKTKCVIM
KRAS G12V, sequence (P01116 1-188 isoform P01116-2 G12V): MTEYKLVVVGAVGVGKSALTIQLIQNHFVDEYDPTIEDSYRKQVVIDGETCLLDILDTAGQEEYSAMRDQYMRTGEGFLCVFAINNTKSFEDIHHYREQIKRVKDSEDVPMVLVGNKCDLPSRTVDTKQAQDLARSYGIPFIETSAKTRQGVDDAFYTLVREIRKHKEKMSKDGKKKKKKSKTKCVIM

Cc1nc2c(F)c(-c3cccc(Cl)c3Cl)c(CCC#N)cc2c2c1cc([C@H]1[C@H]3C[C@H](CN(c4ccccc4)C3)N1C(=O)C1CC1)n2[C@H]1[C@H]2CN[C@@H]1C2 (atropisomer, axis not shown; (Ra)) [Example 1, 3-((Ra)-1-((1R,4R,5S)-2-Azabicyclo[2.1.1]hexan-5-yl)-2-((1 S,5R,7R)-6-(cyclopropanecarbonyl)-3-phenyl-3,6-diazabicyclo[3.2.1]octan-7-yl)-7-(2,3-dichlorophenyl)-6-fluoro-4-methyl-1H-pyrrolo[3,2-c]quinolin-8-yl)propanenitrile]
G12D_exchange (KRAS_G12D exchange assay IC50) [1]: †† | G12V_exchange (KRAS_G12V exchange assay IC50) [2]: † | Papp A→B at 120 min, 50 μM [3]: ≤ 0.5 ×10⁻⁶ cm/s

Cc1nc2c(F)c(-c3cccc(Cl)c3Cl)c(CCC#N)cc2c2c1cc([C@H]1[C@H]3C[C@H](CN(c4ccccc4F)C3)N1C(=O)C1CC1)n2[C@H]1[C@H]2CN[C@@H]1C2 (atropisomer, axis not shown; (Ra)) [Example 2, 3-((Ra)-1-((1R,4R,5S)-2-Azabicyclo[2.1.1]hexan-5-yl)-2-((1 S,5R,7R)-6-(cyclopropanecarbonyl)-3-(2-fluorophenyl)-3,6-diazabicyclo[3.2.1]octan-7-yl)-7-(2,3-dichlorophenyl)-6-fluoro-4-methyl-1H-pyrrolo[3,2-c]quinolin-8-yl)propanenitrile]
G12D_exchange (KRAS_G12D exchange assay IC50) [1]: † | G12V_exchange (KRAS_G12V exchange assay IC50) [2]: † | Papp A→B at 120 min, 50 μM [3]: ≤ 0.5 ×10⁻⁶ cm/s

Cc1nc2c(F)c(-c3cccc(Cl)c3Cl)c(CCC#N)cc2c2c1cc([C@H]1[C@H]3C[C@H](CN(c4ccc(OC(F)(F)F)cc4)C3)N1C(=O)C1CC1)n2[C@H]1[C@H]2CN[C@@H]1C2 (atropisomer, axis not shown; (Ra)) [Example 3, 3-((Ra)-1-((1R,4R,5S)-2-azabicyclo[2.1.1]hexan-5-yl)-2-((1S,5R,7R)-6-(cyclopropanecarbonyl)-3-(4-(trifluoromethoxy)phenyl)-3,6-diazabicyclo[3.2.1]octan-7-yl)-7-(2,3-dichlorophenyl)-6-fluoro-4-methyl-1H-pyrrolo[3,2-c]quinolin-8-yl)propanenitrile]
G12D_exchange (KRAS_G12D exchange assay IC50) [1]: †† | G12V_exchange (KRAS_G12V exchange assay IC50) [2]: † | Papp A→B at 120 min, 50 μM [3]: ≤ 0.5 ×10⁻⁶ cm/s

Cc1nc2c(F)c(-c3cccc(Cl)c3Cl)c(CCC#N)cc2c2c1cc([C@H]1[C@H]3C[C@H](CN(c4ccc(C#N)cc4)C3)N1C(=O)C1CC1)n2[C@H]1[C@H]2CN[C@@H]1C2 (atropisomer, axis not shown; (Ra)) [Example 4, 4-((1S,5R,7R)-7-((Ra)-1-((1R,4R,5S)-2-azabicyclo[2.1.1]hexan-5-yl)-8-(2-cyanoethyl)-7-(2,3-dichlorophenyl)-6-fluoro-4-methyl-1H-pyrrolo[3,2-c]quinolin-2-yl)-6-(cyclopropanecarbonyl)-3,6-diazabicyclo[3.2.1]octan-3-yl)benzonitrile]
G12D_exchange (KRAS_G12D exchange assay IC50) [1]: † | G12V_exchange (KRAS_G12V exchange assay IC50) [2]: † | Papp A→B at 120 min, 50 μM [3]: ≤ 0.5 ×10⁻⁶ cm/s

Cc1nc2c(F)c(-c3cccc(Cl)c3Cl)c(CCC#N)cc2c2c1cc([C@H]1[C@H]3C[C@H](CN(c4ccc(C(F)(F)F)nc4)C3)N1C(=O)C1CC1)n2[C@H]1[C@H]2CN[C@@H]1C2 (atropisomer, axis not shown; (Ra)) [Example 5, 3-((Ra)-1-((1R,4R,5S)-2-azabicyclo[2.1.1]hexan-5-yl)-2-((1S,5R,7R)-6-(cyclopropanecarbonyl)-3-(6-(trifluoromethyl)pyridin-3-yl)-3,6-diazabicyclo[3.2.1]octan-7-yl)-7-(2,3-dichlorophenyl)-6-fluoro-4-methyl-1H-pyrrolo[3,2-c]quinolin-8-yl)propanenitrile]
G12D_exchange (KRAS_G12D exchange assay IC50) [1]: † | G12V_exchange (KRAS_G12V exchange assay IC50) [2]: † | Papp A→B at 120 min, 50 μM [3]: ≤ 0.5 ×10⁻⁶ cm/s

Cc1nc2c(F)c(-c3cccc(Cl)c3Cl)c(CCC#N)cc2c2c1cc([C@H]1[C@H]3C[C@H](CN(c4ccc5c(c4)OC(F)(F)O5)C3)N1C(=O)C1CC1)n2[C@H]1[C@H]2CN[C@@H]1C2 (atropisomer, axis not shown; (Ra)) [Example 7, 3-((Ra)-1-((1R,4R,5S)-2-azabicyclo[2.1.1]hexan-5-yl)-2-((1S,5R,7R)-6-(cyclopropanecarbonyl)-3-(2,2-difluorobenzo[d][1,3]dioxol-5-yl)-3,6-diazabicyclo[3.2.1]octan-7-yl)-7-(2,3-dichlorophenyl)-6-fluoro-4-methyl-1H-pyrrolo[3,2-c]quinolin-8-yl)propanenitrile]
G12D_exchange (KRAS_G12D exchange assay IC50) [1]: † | G12V_exchange (KRAS_G12V exchange assay IC50) [2]: † | Papp A→B at 120 min, 50 μM [3]: ≤ 0.5 ×10⁻⁶ cm/s

COC(=O)N1[C@@H]2C[C@@H](CN(c3ncc(OCC4CC4)cn3)C2)[C@@H]1c1cc2c(C)nc3c(F)c(-c4cccc(Cl)c4Cl)c(CCC#N)cc3c2n1[C@H]1[C@H]2CN[C@@H]1C2 (atropisomer, axis not shown; (Ra)) [Example 126, Methyl (1 S,5R,7R)-7-((Ra)-1-((1R,4R,5S)-2-azabicyclo[2.1.1]hexan-5-yl)-8-(2-cyanoethyl)-7-(2,3-dichlorophenyl)-6-fluoro-4-methyl-1H-pyrrolo[3,2-c]quinolin-2-yl)-3-(5-(cyclopropylmethoxy)pyrimidin-2-yl)-3,6-diazabicyclo[3.2.1]octane-6-carboxylate]
G12V_exchange (KRAS_G12V exchange assay IC50) [2]: † | Papp A→B at 120 min, 50 μM [3]: ≤ 0.5 ×10⁻⁶ cm/s

COC(=O)N1[C@@H]2C[C@@H](CN(c3cnc(C#N)cn3)C2)[C@@H]1c1cc2c(C)nc3c(F)c(-c4cccc(Cl)c4Cl)c(CCC#N)cc3c2n1[C@H]1[C@H]2CN[C@@H]1C2 (atropisomer, axis not shown; (Ra)) [Example 127, Methyl (1 S,5R,7R)-7-((Ra)-1-((1R,4R,5S)-2-azabicyclo[2.1.1]hexan-5-yl)-8-(2-cyanoethyl)-7-(2,3-dichlorophenyl)-6-fluoro-4-methyl-1H-pyrrolo[3,2-c]quinolin-2-yl)-3-(5-cyanopyrazin-2-yl)-3,6-diazabicyclo[3.2.1]octane-6-carboxylate]
G12V_exchange (KRAS_G12V exchange assay IC50) [2]: † | Papp A→B at 120 min, 50 μM [3]: ≤ 0.5 ×10⁻⁶ cm/s

Cc1nc2c(F)c(-c3cccc(Cl)c3Cl)c(CCC#N)cc2c2c1cc([C@H]1[C@H]3C[C@H](CN(c4cc(C(C)(F)F)ncn4)C3)N1C(=O)C1(F)CC1)n2[C@H]1[C@H]2CN[C@@H]1C2 (atropisomer, axis not shown; (Ra)) [Example 128, 3-((Ra)-1-((1R,4R,5S)-2-azabicyclo[2.1.1]hexan-5-yl)-7-(2,3-dichlorophenyl)-2-((1S,5R,7R)-3-(6-(1,1-difluoroethyl)pyrimidin-4-yl)-6-(1-fluorocyclopropane-1-carbonyl)-3,6-diazabicyclo[3.2.1]octan-7-yl)-6-fluoro-4-methyl-1H-pyrrolo[3,2-c]quinolin-8-yl)propanenitrile]
G12V_exchange (KRAS_G12V exchange assay IC50) [2]: † | Papp A→B at 120 min, 50 μM [3]: ≤ 0.5 ×10⁻⁶ cm/s
